Assay results published in US20110160196A1, “FACTOR XA INHIBITORS” (Millennium Pharmaceuticals, Inc., priority 2007, published 2011).

Target: T1, human plasma protein factor Xa (Homo sapiens, UniProt P00742)
T1 construct: The human plasma protein factor Xa was purchased; purchased Haematologic Technologies (Essex Junction, Vt.); host or cells: human plasma
Assay: Factor Xa IC50 determination (cleavage of paranitroanilide substrate S-2765)
Format: biochemical
Conditions: factor Xa 1 nM, S-2765 100 μM, Tris buffered saline pH 7.4, read at 405 nm
Summary of the method: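 Human plasma factor Xa (1 nM) preincubated 5 min at room temperature with inhibitor (0.01 nM–10 μM) in Tris-buffered saline pH 7.4 with 5 mM CaCl2, 0.1% BSA, 5% DMSO. S-2765 added at 100 μM final; pNA release followed at 405 nm for 2 min. IC50 from four-parameter fit of initial velocities.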

T1 sequence (P00742 235-488 limits assumed): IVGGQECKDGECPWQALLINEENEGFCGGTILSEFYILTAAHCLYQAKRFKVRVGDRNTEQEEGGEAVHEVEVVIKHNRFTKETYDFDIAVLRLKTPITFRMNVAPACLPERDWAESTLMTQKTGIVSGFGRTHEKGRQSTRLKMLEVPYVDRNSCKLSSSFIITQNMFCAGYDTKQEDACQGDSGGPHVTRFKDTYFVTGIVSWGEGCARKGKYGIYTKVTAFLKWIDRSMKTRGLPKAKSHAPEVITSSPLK
T1 sequence (P00742 41-179 partner limits assumed): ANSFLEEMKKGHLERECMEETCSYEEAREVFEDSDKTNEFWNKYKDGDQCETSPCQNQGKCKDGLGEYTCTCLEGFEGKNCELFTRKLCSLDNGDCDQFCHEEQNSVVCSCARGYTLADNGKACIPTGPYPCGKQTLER

SMILES | IC50 [nM]
O=C1CN(c2cc(-n3ccccc3=O)ccc2-n2cc(CNC(=O)c3ccc(Cl)s3)nn2)CCN1 [Compound 6, 5-Chloro-N-((1-(2-(3-oxopiperazin-1-yl)-4-(2-oxopyridin-1(2H)-yl)phenyl)-1H-1,2,3-triazol-4-yl)methyl)thiophene-2-carboxamide] | ≤ 100
O=C(O)COc1cc(-n2ccccc2=O)ccc1-n1cc(CNC(=O)c2ccc(Cl)s2)nn1 [Compound 96, 2-(2-(4-((2-Chlorothiophene-5-carboxamido)methyl)-1H-1,2,3-triazol-1-yl)-5-(2-oxopyridin-1(2H)-yl)phenoxy)acetic acid] | 100 to 500
O=C(NCc1cn(-c2ccc(-n3ccccc3=O)cc2OCCN2CCOCC2)nn1)c1ccc(Cl)s1 [Compound 90, 5-Chloro-N-((1-(2-(2-morpholinoethoxy)-4-(2-oxopyridin-1(2H)-yl)phenyl)-1H-1,2,3-triazol-4-yl)methyl)thiophene-2-carboxamide] | ≤ 100
CN(C)C1CCN(c2cc(-n3ccccc3=O)ccc2-n2cc(CNC(=O)c3ccc(Cl)s3)nn2)CC1 [Compound 16, 5-Chloro-N-((1-(2-(4-(dimethylamino)piperidin-1-yl)-4-(2-oxopyridin-1(2H)-yl)phenyl)-1H-1,2,3-triazol-4-yl)methyl)thiophene-2-carboxamide] | ≤ 100
CC(=O)NC1CCN(c2cc(-n3ccccc3=O)ccc2-n2cc(CNC(=O)c3ccc(Cl)s3)nn2)CC1 [Compound 18, N-((1-(2-(4-Acetamidopiperidin-1-yl)-4-(2-oxopyridin-1(2H)-yl)phenyl)-1H-1,2,3-triazol-4-yl)methyl)-5-chlorothiophene-2-carboxamide] | ≤ 100
O=C(NCc1cn(-c2ccc(-n3ccccc3=O)cc2OC(F)(F)F)nn1)c1ccc(Cl)s1 [Compound 99, 5-Chloro-N-((1-(4-(2-oxopyridin-1(2H)-yl)-2-(trifluoromethoxy)phenyl)-1H-1,2,3-triazol-4-yl)methyl)thiophene-2-carboxamide] | ≤ 100
NCCSc1cc(-n2ccccc2=O)ccc1-n1cc(CNC(=O)c2ccc(Cl)s2)nn1 [Compound 53, N-((1-(2-(2-Aminoethylthio)-4-(2-oxopyridin-1(2H)-yl)phenyl)-lH-1,2,3-triazol-4-yl)methyl)-5-chlorothiophene-2-carboxamide] | ≤ 100
O=C(NCc1cn(-c2ccc(-n3ccccc3=O)cc2C(=O)N2CCNCC2)nn1)c1ccc(Cl)s1 [Compound 113, 5-Chloro-N-((1-(4-(2-oxopyridin-1(2H)-yl)-2-(piperazine-1-carbonyl)phenyl)-1H-1,2,3-triazol-4-yl)methyl)thiophene-2-carboxamide] | 100 to 500
NC(=O)C1CCN(c2cc(-n3ccccc3=O)ccc2-n2cc(CNC(=O)c3ccc(Cl)s3)nn2)CC1 [Compound 25, 1-(2-(4-((2-Chlorothiophene-5-carboxamido)methyl)-1H-1,2,3-triazol-1-yl)-5-(2-oxopyridin-1(2H)-yl)phenyl)piperidine-4-carboxamide] | ≤ 100
CNCCN(C)C(=O)c1cc(-n2ccccc2=O)ccc1-n1cc(CNC(=O)c2ccc(Cl)s2)nn1 [Compound 110, 5-Chloro-N-((1-(2-(methyl(2-(methylamino)ethyl)carbamoyl)-4-(2-oxopyridin-1(2H)-yl)phenyl)-1H-1,2,3-triazol-4-yl)methyl)thiophene-2-carboxamide] | 100 to 500
O=C(NCc1cn(-c2ccc(-n3ccccc3=O)cc2-n2ccnc2)nn1)c1ccc(Cl)s1 [Compound 42, N-((1-(2-(1H-Imidazol-1-yl)-4-(2-oxopyridin-1(2H)-yl)phenyl)-1H-1,2,3-triazol-4-yl)methyl)-5-chlorothiophene-2-carboxamide] | ≤ 100
NCC[S+]([O-])c1cc(-n2ccccc2=O)ccc1-n1cc(CNC(=O)c2ccc(Cl)s2)nn1 (stereo not shown) [Compound 54, N-((1-(2-(2-Aminoethylsulfoxy)-4-(2-oxopyridin-1(2H)-yl)phenyl)-1H-1,2,3-triazol-4-yl)methyl)-5-chlorothiophene-2-carboxamide] | ≤ 100
O=C(NCc1cn(-c2ccc(-n3ccccc3=O)cc2C(=O)NCCCO)nn1)c1ccc(Cl)s1 [Compound 105, N-((1-(2-((3-Hydroxypropyl)carbamoyl)-4-(2-oxopyridin-1(2H)-yl)phenyl)-1H-1,2,3-triazol-4-yl)methyl)-5-chlorothiophene-2-carboxamide] | 100 to 500

Results, then the compound that gave them:

IC50 [nM] | SMILES
≤ 100 | O=C(NCc1cn(-c2ccc(-n3ccccc3=O)cc2-c2ccnc(O)c2)nn1)c1ccc(Cl)s1 [Compound 137, 5-Chloro-N-((1-(2-(2-hydroxypyridin-4-yl)-4-(2-oxopyridin-1(2H)-yl)phenyl)-1H-1,2,3-triazol-4-yl)methyl)thiophene-2-carboxamide]
≤ 100 | COc1ccc(-c2cc(-n3ccccc3=O)ccc2-n2cc(CNC(=O)c3ccc(Cl)s3)nn2)cn1 [Compound 143, 5-Chloro-N-((1-(2-(6-methoxypyridin-3-yl)-4-(2-oxopyridin-1(2H)-yl)phenyl)-1H-1,2,3-triazol-4-yl)methyl)thiophene-2-carboxamide]
≤ 100 | O=C(NCc1cn(-c2ccc(-n3ccccc3=O)cc2OCCCOC(=O)N2CCOCC2)nn1)c1ccc(Cl)s1 [Compound 150, 3-(2-(4-((5-Chlorothiophene-2-carboxamido)methyl)-1H-1,2,3-triazol-1-yl)-5-(2-oxopyridin-1(2H)-yl)phenoxy)propyl morpholine-4-carboxylate]
≤ 100 | CN(C)c1ccc(-c2cc(-n3ccccc3=O)ccc2-n2cc(CNC(=O)c3ccc(Cl)s3)nn2)cn1 [Compound 145, 5-Chloro-N-((1-(2-(6-(dimethylamino)pyridin-3-yl)-4-(2-oxopyridin-1(2H)-yl)phenyl)-1H-1,2,3-triazol-4-yl)methyl)thiophene-2-carboxamide]
≤ 100 | O=C(NCc1cn(-c2ccc(-n3ccccc3=O)cc2OCc2ncc[nH]2)nn1)c1ccc(Cl)s1 [Compound 177, N-((1-(2-((1H-Imidazol-2-yl)methoxy)-4-(2-oxopyridin-1(2H)-yl)phenyl)-1H-1,2,3-triazol-4-yl)methyl)-5-chlorothiophene-2-carboxamide]
≤ 100 | O=C(NCc1cn(-c2ccc(-n3ccccc3=O)cc2OCCc2ccccn2)nn1)c1ccc(Cl)s1 [Compound 168, 5-Chloro-N-((1-(4-(2-oxopyridin-1(2H)-yl)-2-(2-(pyridin-2-yl)ethoxy)phenyl)-1H-1,2,3-triazol-4-yl)methyl)thiophene-2-carboxamide]
≤ 100 | O=C(NCc1cn(-c2ccc(-n3ccccc3=O)cc2OCc2ccncc2)nn1)c1ccc(Cl)s1 [Compound 167, 5-Chloro-N-((1-(4-(2-oxopyridin-1(2H)-yl)-2-(pyridin-4-ylmethoxy)phenyl)-1H-1,2,3-triazol-4-yl)methyl)thiophene-2-carboxamide]
≤ 100 | O=C(NCc1cn(-c2ccc(-n3ccccc3=O)cc2OCc2ccccn2)nn1)c1ccc(Cl)s1 [Compound 169, 5-Chloro-N-((1-(4-(2-oxopyridin-1(2H)-yl)-2-(pyridin-2-ylmethoxy)phenyl)-1H-1,2,3-triazol-4-yl)methyl)thiophene-2-carboxamide]
≤ 100 | O=C(NCc1cn(-c2ccc(-n3ccccc3=O)cc2OCc2ccc3ccccc3n2)nn1)c1ccc(Cl)s1 [Compound 170, 5-Chloro-N-((1-(4-(2-oxopyridin-1(2H)-yl)-2-(quinolin-2-ylmethoxy)phenyl)-1H-1,2,3-triazol-4-yl)methyl)thiophene-2-carboxamide]
